Source: US8633167B2, “Method for the protection of trees” (Syngenta Crop Protection LLC, priority 2006, dated 2014)

Tests used:
Cerambycid larvae = assay: Bolt study (Example 1): cerambycid larval feeding in loblolly pine bolts cut after trunk injection; type: in vivo; details: for reduction of cerambycid feeding damage: May
Method: (§1) Two 20-year-old, recently thinned loblolly pine plantations were selected on land owned by Temple-Inland Forest Products Corporation about 5 km south of Wells (Angelina County), Tex. Trees in one plantation were injected for use in a bolt study (Example 1). Trees in a 0.2 ha section of the second plantation were injected as part of a single-tree protection study (Example 2). A staging area also was set up in the second plantation where bolts from the first plantation were exposed to bark beetles and wood borers.
Seventy-five loblolly pine trees, Pinus taeda L., 15-20 cm diameter at breast height (DBH), were selected in March 2004. Each treatment was injected into four cardinal points about 0.3 m above the ground on each of 15 trees in April (16th-23rd) using the new Arborjet Tree IV™ microinfusion system (Arborjet, Inc. Woburn, Mass.). The treatments included: • 1) Emamectin benzoate (Denim®, 1.92% ai, Syngenta Crop Science)—Denim® was mixed 1:1 with methanol and applied at 18.6 ml solution per inch of tree diameter at breast height (DBH) (=0.2 g active per inch DBH). • 2) Check (untreated)
After 1 (May 24), 3 (July 19) and 5 (September) months post-injection, 5 trees of each treatment were felled and two 1.5 m long bolts were removed from the 3 m and 8 m heights of the bole. The bolts were transported to a nearby plantation that was recently thinned and contained fresh slash material. Each bolt was placed about 1 m apart on discarded, dry pine bolts to maximize surface area available for colonization as well as to discourage predation by ground and litter-inhabiting organisms. To facilitate timely bark beetle colonization, packets of bark beetle pheromones (racemic ipsdienol + lanerione combination, ipsenol or cis-verbenol; Phero Tech, Inc., Delta, BC, Canada) were attached separately to three 1 m stakes evenly spaced in the study area. Racemic ipsdienol and cis-verbenol were used with the second and third series of bolts deployed in July and September, respectively. The packets were removed after 2 weeks when signs of attacks (boring dust) were observed on most test bolts, signaling that naturally-produced pheromones were present.
Each series of bolts were retrieved about 3 weeks after deployment, after observing many cerambycid egg niches on the bark surface of most bolts. There was concern that if cerambycid larvae were allowed to develop too long, their feeding activity would obscure or obliterate the Ips galleries. Thus, each series of bolts were retrieved and stored temporarily in a TFS seedling cooler (˜45° F.) to slow cerambycid development until the bolts could be evaluated.
In the laboratory, two 10×50 cm strips (total=1000 cm^2) of bark were removed from each bolt. Several measurements were made relating to construction of nuptial chambers and egg galleries and development of brood: • 1) Number of unsuccessful attacks—penetration to phloem, but no egg galleries. • 2) Number of successful attacks—construction of nuptial chamber and at least one egg gallery extending from it. • 3) Number and lengths of egg galleries with brood galleries radiating from them. • 4) Number and lengths of egg galleries without brood galleries. • 5) Cerambycid activity, estimated by overlaying a 100 cm^2 grid over a portion of each bark strip and counting the number of squares overlapping area where cerambycid larvae had fed.
Treatment efficacy was determined by comparing Ips beetle attacks and egg gallery length and cerambycid feeding on treated and untreated bolts. The data were transformed by log10(x+1) to satisfy criteria for normality and homoscedasticity (Zar 1984) and analyzed by GLM and the Fishers Protected LSD test using the Statview statistical program.

Ips engravers beetles = assay: Single-tree protection study (Example 2): Ips attack, tree mortality and gallery construction on standing loblolly pine; type: in vivo; details: for Mean # of Egg Galleries Total Number / Mean # of Egg Galleries With Brood No. / Mean # of Egg Galleries Without Brood No. / Mean Length of Egg Galleries Total Length / Mean Length of Egg Galleries With Brood cm / Mean Length of Egg Galleries Without Brood cm: bolts cut after tree mortality or at the end of the trial; for Mean # of Nuptial Chambers With Egg Galleries % of Total / Mean # of Nuptial Chambers Without Egg Galleries % of Total / Mean # of Nuptial Chambers Without Egg Galleries No. / Mean # of Nuptial Chambers with Egg Galleries No. / Mean Total # of Nuptial Chambers: bolts cut after tree mortality or the end of the trial
Method: as §1
Loblolly pine, 15-20 cm DBH, were selected in the second plantation in March 2004. Each treatment (the same as those used in Example 1) was injected into four cardinal points about 0.3 m above the ground on each of 6 trees in April (16th-23rd) using the Arborjet Tree IV™ system. After 5 weeks post-injection (May 28), frills were cut with a hatchet into the sapwood between the injection points near the base of the tree. A cellulose sponge was inserted into each cut and loaded with 10 ml of a 4:1 mix of sodium N-methyldithiocarbamate (MS) (Woodfume®; Osmose, Inc., Buffalo, N.Y.) plus dimethyl sulfoxide (DMSO) (Aldrich Chemical) (Roton 1987, Strom et al. 2004). This method reduces resin to near zero in 1-2 weeks. The intent was to stress the tree and make it susceptible to attack by bark beetles without killing it.
Pheromone packets containing racemic ipsdienol + lanerione, ipsenol or cis-verbenol were attached (June 7) atop 3 m stakes evenly spaced in between and around the study trees to encourage attack by the three Ips engraver species. […] Thus, ipsdienol and cis-verbenol pheromone baits were deployed on all stakes on June 17th. The baits were changed every 4 weeks.
A clear panel of acetate (10 cm wide by 25 cm long) coated with Stickem Special® was attached 2 m high on standing trees after deployment of pheromone baits to monitor arrival of bark beetles. The traps were left in place for two weeks.
Three weeks after pheromone deployment (June 28), each tree was evaluated by marking a 30 cm section of bole at a height of 3 m. All visible Ips attacks and cerambycid egg niches were counted within the marked area. The number of trees with fading crowns also was recorded. Thereafter, the trees were evaluated weekly for crown fading. When mortality did occur, the trees were felled and two bolts taken and evaluated for attack success and gallery length as described in Example 1. All remaining trees were felled 66 days (Aug. 9) after initial pheromone deployment when no additional trees had died for 3 weeks. Treatment efficacy was determined by comparing tree survival, beetle attacks and egg gallery length on treated and untreated bolts. As before, data were transformed and analyzed by GLM and the Fisher's Protected LSD test using the Statview statistical program.

[1] = tested on: coneworm, Dioryctria spp.; details: systemic activity in pine; cited from earlier work

With “4″-deoxy-4″-N-methylamino avermectin B1a/B1b [Emamectin]” the “Percent Phloem Area Consumed by Larvae” value (Cerambycid larvae; 1 Month Post Injection (May), bolt height 3 m) was 2.2 a %, the “Percent Phloem Area Consumed by Larvae” value (Cerambycid larvae; 1 Month Post Injection (May), bolt height 8 m) was 0.0 a % and the “Percent Phloem Area Consumed by Larvae” value (Cerambycid larvae; 3 Months Post Injection (July), bolt height 3 m) was 0.0 a %. The “Percent Phloem Area Consumed by Larvae” value (Cerambycid larvae; 3 Months Post Injection (July), bolt height 8 m) was 0.0 a %, the “Percent Phloem Area Consumed by Larvae” value (Cerambycid larvae; 5 Months Post Injection (September), bolt height 3 m) was 0.0 a % and the “Percent Phloem Area Consumed by Larvae” value (Cerambycid larvae; 5 Months Post Injection (September), bolt height 8 m) was 0.0 a %. The “cerambycid larval feeding or development” value (Cerambycid larvae; July and September series, bolts from 3 m) was “no larval feeding or development”, the “reduction of cerambycid feeding damage” value (Cerambycid larvae; bolts from 3 m) was 93% and the “reduction of cerambycid feeding damage” value (Cerambycid larvae; bolts from 8 m) was 100%. The “Percentage of Trees With Fading Crowns” value (Ips engravers beetles; after 24 days) was 0.0 a %, the “Percentage of Trees With Fading Crowns” value (Ips engravers beetles; after 32 days) was 0.0 a % and the “Percentage of Trees With Fading Crowns” value (Ips engravers beetles; after 39 days) was 0.0 a %. The “Percentage of Trees With Fading Crowns” value (Ips engravers beetles; after 46 days) was 0.0 a %, the “Percentage of Trees With Fading Crowns” value (Ips engravers beetles; after 52 days) was 0.0 a % and the “Percentage of Trees With Fading Crowns” value (Ips engravers beetles; after 66 days) was 0.0 a %. For the same substance, the “Mean # of Egg Galleries Total Number” value (Ips engravers beetles; bolt height 3 m) was 0.0 a, the “Mean # of Egg Galleries With Brood No.” value (Ips engravers beetles; bolt height 3 m) was 0.0 a and the “Mean # of Egg Galleries Without Brood No.” value (Ips engravers beetles; bolt height 3 m) was 0.0 a. The “Mean Length of Egg Galleries Total Length” value (Ips engravers beetles; bolt height 3 m) was 0.0 a cm, the “Mean Length of Egg Galleries With Brood cm” value (Ips engravers beetles; bolt height 3 m) was 0.0 a cm and the “Mean Length of Egg Galleries Without Brood cm” value (Ips engravers beetles; bolt height 3 m) was 0.0 a cm. The “Mean # of Egg Galleries Total Number” value (Ips engravers beetles; bolt height 8 m) was 0.0 a, the “Mean # of Egg Galleries With Brood No.” value (Ips engravers beetles; bolt height 8 m) was 0.0 a and the “Mean # of Egg Galleries Without Brood No.” value (Ips engravers beetles; bolt height 8 m) was 0.0 a. For the same substance, the “Mean Length of Egg Galleries Total Length” value (Ips engravers beetles; bolt height 8 m) was 0.0 a cm, the “Mean Length of Egg Galleries With Brood cm” value (Ips engravers beetles; bolt height 8 m) was 0.0 a cm and the “Mean Length of Egg Galleries Without Brood cm” value (Ips engravers beetles; bolt height 8 m) was 0.0 a cm. For the same substance, the “Mean # of Nuptial Chambers With Egg Galleries % of Total” value (Ips engravers beetles; bolt height 3 m) was 0.0%, the “Mean # of Nuptial Chambers Without Egg Galleries % of Total” value (Ips engravers beetles; bolt height 3 m) was 100.0% and the “Mean # of Nuptial Chambers Without Egg Galleries No.” value (Ips engravers beetles; bolt height 3 m) was 3.0 ab. For the same substance, the “Mean # of Nuptial Chambers with Egg Galleries No.” value (Ips engravers beetles; bolt height 3 m) was 0.0 a, the “Mean Total # of Nuptial Chambers” value (Ips engravers beetles; bolt height 3 m) was 3.0 a and the “Mean # of Nuptial Chambers With Egg Galleries % of Total” value (Ips engravers beetles; bolt height 8 m) was 0.0%. The “Mean # of Nuptial Chambers Without Egg Galleries % of Total” value (Ips engravers beetles; bolt height 8 m) was 100.0%, the “Mean # of Nuptial Chambers Without Egg Galleries No.” value (Ips engravers beetles; bolt height 8 m) was 1.3 ab and the “Mean # of Nuptial Chambers with Egg Galleries No.” value (Ips engravers beetles; bolt height 8 m) was 0.0 a. For the same substance, the “Mean Total # of Nuptial Chambers” value (Ips engravers beetles; bolt height 8 m) was 1.3 a, the “attacks on cut bolts compared to the check” value (Ips engravers beetles; cut bolts, both heights) was “significantly fewer” and the “success of attacks that did occur” value (Ips engravers beetles; cut bolts, both heights) was “completely unsuccessful”. For the same substance, the “Mean # of Attacks/0.3 Bole Section at 3 m after 24 days, Ips” value (Ips engravers beetles; standing loblolly pine, after 24 days) was 0.5 a, the “Mean # of Ips caught/Trap” value (Ips engravers beetles; standing loblolly pine, trap 2 m high) was 1.2 a and the “Ips attacks compared to checks” value (Ips engravers beetles; standing trees, at 3 m height) was “significantly fewer”. The “trees with fading crowns (yellowing needles)” value (Ips engravers beetles; standing trees, first evaluation) was “None”, the tree survival (Ips engravers beetles; standing trees, study discontinued after 66 days) was “all emamectin benzoate-treated trees survived” and the efficacy against coneworm [1] was “highly effective”.
